# Reference: patent US20080090749A1 (priority 2005, published 2008)
# Where “and” joins values, the source holds several entries; their conditions need not be identical. Equal entries are not always repeated.
# Legend:
# [1] = test system: diarrhea due to stress loading using a stress cage; assay: Stress loading using a stress cage, histidine bolus oral administration (Example 2), fecal examination; type: in vivo, Wistar rats
# Protocol: After being preliminarily reared on an ordinary diet (CRF-1, Charles River Japan Inc.) for 1 week, Wistar rats (6 weeks of age, male) received histidine given by gavage at a frequency of twice a day (morning and evening) on day 8 and day 9 after the start of the preliminary rearing. A 5 mL dosing volume of 0.5% methylcellulose solution (control solution) for the control group, or a solution of L-histidine hydrochloride dissolved (partially suspended) in 0.5% methylcellulose solution to a content ratio of 1.5 g per kg body weight of each rat for the histidine dosing group, was orally administered using a sonde. Stress loading was performed using a stress cage in the same manner as Example 1. That is, after each rat was transferred to a small individual cage (13.5×27×12 cm) in the morning of day 10, and allowed to stand for 2 hours, the same histidine solution or control solution as those given on the previous day were once orally administered. After being allowed to stand in a small individual cage for 2 hours, each rat was transferred to a constraint cage (5×17×4 cm) and allowed to stand for 1 hour, whereby stress loading was performed. The feces excreted by the rat were examined for description, number, and weight.
# (§1) Eight rats were used for each group.
# Histamine = Histamine content in the large intestine of stress-loaded rats by LC/MS; type: in vivo, Wistar rats
# Protocol: (§2) After being preliminarily reared on an ordinary diet (CRF-1, Charles River Japan Inc.) for 1 week, Wistar rats (4 weeks of age, male) were fed an ordinary diet (control group) or a histidine diet prepared by mixing finely milled L-histidine hydrochloride at 2% by weight in the ordinary diet (histidine dosing group) for 2 weeks. In the mornings of day 15, day 16, and day 17 after the start of the rearing with the histidine diet, stress loading was performed by the method described below, and the feces excreted by the rats were examined for weight and description.
# (§3) The large intestines of stress-loaded rats were collected and frozen in liquid nitrogen on day 17, and stored at −80° C. until use. Extracted from the frozen samples by the following protocol were noradrenaline, histamine, serotonin and 3-methylhistidine, which were then quantified by LC/MS.
# (§4) Each frozen rat tissue (large intestine) stored at −80° C. as disrupted using CryoPress (manufactured by Microtec Co., Ltd.), and 1 mL of methanol per 100 mg at −80° C. was added. The mixture was disrupted using FastPrep (30 sec×2 times), and 0.8 mL of the disruption liquid was recovered. 1 mL of cold chloroform was added thereto, and the mixture was stirred using Vortex for 1 minute, after which 1 mL of cold H2O was added. After the mixture was further stirred using Vortex for 1 minute, it was allowed to stand for 30 minutes. […]
# [2] = test system: diarrhea under stress loading using a stress cage; assay: Stress loading using a stress cage, histidine diet (Example 1), fecal examination; type: in vivo, Wistar rats; settings: for Number of individuals with diarrhea / Number of individuals with soft feces / Number of individuals without diarrhea or soft feces: 8 individuals examined
# Protocol: as §2
# After being allowed to stand in a small individual cage (13.5×27×12 cm) for about 2 hours, each rat was transferred to a constraint (stress) cage having a size such that the rat cannot move (5×17×4 cm), and further allowed to stand for 2 hours, whereby stress loading was performed (control stress group, histidine dosing stress group). The feces excreted by the rat were examined for description, number, and weight. The stress loading and fecal examination were performed on each individual for three consecutive days.
# as §1
# [3] = test system: ulcerative damage of the intestine; settings: reported; cited from earlier work
# cholera toxin = settings: cited from earlier work
# [4] = test system: soft feces due to stress loading by front leg constraint; assay: Stress loading by front leg constraint, histidine oral administration (Example 3), fecal examination; type: in vivo, Wistar rats
# Protocol: After being preliminarily reared on an ordinary diet (CRF-1, Charles River Japan Inc.) for 1 week, Wistar rats (6 weeks of age, male) received histidine given by gavage at a frequency of twice a day (morning and evening) on day 8 and day 9 as described above. A 5 mL dosing volume of 0.5% methylcellulose solution (control solution) for the control group, or a solution of L-histidine hydrochloride dissolved (partially suspended) in 0.5% methylcellulose solution to a content ratio of 1.5 g per kg body weight of each rat for the histidine dosing group, was orally administered using a sonde.
# In the morning of day 10, the same histidine solution or control solution as those given on the previous day was once orally administered. One hour later, under low-dose ether anesthesia, stress loading was performed by constraining the front legs with a tape of the Scotch brand. After each animal was allowed to stand for 1 hour in an individual cage, the feces excreted by the rat were examined for description, number, and weight.
# as §1
# Noradrenaline = Noradrenaline content in the large intestine of stress-loaded rats by LC/MS; type: in vivo, Wistar rats; settings: Stress+ His diet+; day 17; N = 8
# Protocol: as §2, §3, §4
# Serotonin = Serotonin content in the large intestine of stress-loaded rats by LC/MS; type: in vivo, Wistar rats
# Protocol: as §2, §3, §4
# 3-methylhistidine = 3-methylhistidine content in the large intestine of stress-loaded rats by LC/MS (index for proteolysis); type: in vivo, Wistar rats
# Protocol: as §2, §3, §4
# [5] = 8 individuals examined, histidine bolus oral administration
# [6] = group mean, 8 rats, 1.5 g per kg oral, stress cage 1 hour
# [7] = individual rats, 1.5 g per kg oral, stress cage 1 hour, hydrochloride
# [8] = Stress+ His diet+, day 17, N = 8
# [9] = individual rats, 2% L-histidine hydrochloride diet, stress cage, stress day 1, hydrochloride
# [10] = individual rats, 2% L-histidine hydrochloride diet, stress cage, stress day 2, hydrochloride
# [11] = individual rats, 2% L-histidine hydrochloride diet, stress cage, stress day 3, hydrochloride
# [12] = stress loading Day 1, histidine diet
# [13] = stress loading Day 2, histidine diet
# [14] = stress loading Day 3, histidine diet
# [15] = individual rats, 1.5 g per kg oral, front leg constraint 1 hour, hydrochloride
structure (smiles),measurement,setting,value
"Cl.N[C@@H](Cc1c[nH]cn1)C(=O)O [Histidine, L-histidine hydrochloride]",Number of individuals with diarrhea,[1]; [5],0
same,Number of individuals with soft feces,[1]; [5],8
same,Number of individuals without diarrhea or soft feces,[1]; [5],0
same,effect of histidine administration on diarrhea,"[1]; bolus oral administration, stress cage, compared to the control group",suppressive effect
same,"Number of normal feces, Mean",[1]; [6],0.125
same,"Number of soft feces, Mean",[1]; [6],6
same,"Total fecal weight, Mean",[1]; [6],1.64 g
same,"Onset of diarrhea, individuals in group","[1]; group of 8 rats, 1.5 g per kg oral, stress cage 1 hour",0 individual
same,Onset of diarrhea,"[1]; individual rats, 1.5 g per kg oral, stress cage 1 hour",none
same,Number of normal feces,[1]; [7],0 (7×) and 1
same,Number of soft feces,[1]; [7],12 and 8 and 3 and 5 and 6 (2×) and 4 (2×)
same,Total fecal weight,[1]; [7],2.379 g and 2.7 g and 0.852 g and 2.077 g and 1.515 g and 1.975 g and 0.72 g and 0.94 g
same,Histamine content in the large intestine (Tissue wet weight),Histamine; [8],6.61 nmol/g
same,effect on increase of histamine tissue content in the large intestine due to stress loading,Histamine; histidine diet,tended to be suppressed
same,effect of histidine administration on diarrhea,"[2]; histidine diet, stress cage, compared to the control group",suppressive effect
same,Number of feces Day 1 normal feces,"[2]; individual rats, 2% L-histidine hydrochloride diet 2 weeks, stress cage 2 hours, stress day 1, hydrochloride",6 and 3 (2×) and 1 and 11 and 10 and 5 and 0
same,Fecal weight Total weight Day 1,[2]; [9],1.01 g and 1.65 g and 1.94 g and 2.23 g and 2.82 g and 2.46 g and 1.77 g and 0.00 g
same,Number of feces Day 1 diarrhea,[2]; [9],0 (7×) and 1
same,Number of feces Day 1 soft feces,[2]; [9],0 (3×) and 1 (2×) and 3 (3×)
same,Fecal weight Total weight Day 2,[2]; [10],0.58 g and 0.56 g and 4.02 g and 2.38 g and 0.25 g and 3.48 g and 1.28 g and 1.26 g
same,Number of feces Day 2 diarrhea,[2]; [10],0 (7×) and 2
same,Number of feces Day 2 normal feces,[2]; [10],4 and 2 and 10 and 8 and 3 and 5 and 6 (2×)
same,Number of feces Day 2 soft feces,[2]; [10],0 (4×) and 3 and 2 and 5 and 1
same,Fecal weight Total weight Day 3,[2]; [11],1.15 g and 0.46 g and 3.27 g and 1.00 g and 2.22 g and 3.99 g and 1.64 g and 0.41 g
same,Number of feces Day 3 diarrhea,[2]; [11],0 (7×) and 1
same,Number of feces Day 3 normal feces,[2]; [11],6 (5×) and 1 and 4 and 3
same,Number of feces Day 3 soft feces,[2]; [11],0 (3×) and 1 (2×) and 4 (2×) and 5
same,Number of individuals with diarrhea,[2]; [12],1
same,Number of individuals with soft feces,[2]; [12],5
same,Number of individuals without diarrhea or soft feces,[2]; [12],3
same,Number of individuals with diarrhea,[2]; [13],1
same,Number of individuals with soft feces,[2]; [13],4
same,Number of individuals without diarrhea or soft feces,[2]; [13],4
same,Number of individuals with diarrhea,[2]; [14],1
same,Number of individuals with soft feces,[2]; [14],5
same,Number of individuals without diarrhea or soft feces,[2]; [14],3
same,effect on ulcerative damage of the intestine by infectious microorganisms and drugs,[3],Mitigates
same,action on the gut water secretion by cholera toxin,cholera toxin,suppressive action
same,"Onset of diarrhea, group line","[4]; Mean line of group, 8 rats",0
same,Mean number of normal feces,"[4]; Table 8, front leg constraint",0.88
same,Mean number of soft feces,"[4]; Table 8, front leg constraint",3.75
same,"Total fecal weight, Mean","[4]; group mean, 8 rats",1.68
same,"Number of normal feces, Mean","[4]; group mean, 8 rats, Table 7",0.88
same,"Number of soft feces, Mean","[4]; group mean, 8 rats, Table 7",3.75
same,Onset of diarrhea,"[4]; individual rats, 1.5 g per kg oral, front leg constraint 1 hour",none
same,Number of normal feces,[4]; [15],4 and 2 and 0 (5×) and 1
same,Number of soft feces,[4]; [15],5 (2×) and 2 (2×) and 0 and 6 (2×) and 4
same,Total fecal weight,[4]; [15],2.12 and 0.73 and 1.03 and 0 and 2.18 and 2.47 and 2.63 and 2.31
same,effect of histidine administration on diarrhea,"[4]; oral administration, front leg constraint, compared to the control group",suppressive effect
same,Noradrenaline content in the large intestine (Tissue wet weight),Noradrenaline,0.96 nmol/g
same,Serotonin content in the large intestine (Tissue wet weight),Serotonin; [8],6.63 nmol/g
same,effect on increase of serotonin tissue content in the large intestine due to stress loading,Serotonin; histidine diet,tended to be suppressed
same,3-methylhistidine content in the large intestine (Tissue wet weight),3-methylhistidine; [8],0.13 nmol/g
same,effect on increase of 3-methylhistidine with stress loading,3-methylhistidine; histidine diet,suppressed
